In ChEMBL document CHEMBL1649237, “IND-6, a highly divergent IND-type metallo-beta-lactamase from Chryseobacterium indologenes strain 597 isolated in Burkina Faso” (2009):
Values after ≈ are worked out from the molar mass of the structure shown.

Experiments:
Type in all cases: functional
[1] = tested on: Chryseobacterium indologenes; experiment: Antimicrobial activity against Chryseobacterium indologenes 597 expressing metallo-beta-lactamase IND-6 after 18 hrs by broth microdilution method in presence of beta-lactamase inhibitor clavulanic acid; conditions: Chryseobacterium indologenes, 597, 18 h
Escherichia coli [2] = experiment: Antimicrobial activity against Escherichia coli DH5alpha harboring metallo-beta-lactamase IND-6 after 18 hrs by broth microdilution method; conditions: DH5[alpha]
[3] = tested on: Chryseobacterium indologenes; experiment: Antimicrobial activity against Chryseobacterium indologenes 597 expressing metallo-beta-lactamase IND-6 after 18 hrs by broth microdilution method; conditions: Chryseobacterium indologenes, 597, 18 h
Escherichia coli [4] = experiment: Antimicrobial activity against Escherichia coli DH5alpha harboring plasmid pBC-SK after 18 hrs by broth microdilution method; conditions: DH5[alpha]
[5] = tested on: Chryseobacterium indologenes; experiment: Antimicrobial activity against Chryseobacterium indologenes 597 expressing metallo-beta-lactamase IND-6 after 18 hrs by broth microdilution method in presence of beta-lactamase inhibitor Tazobactam; conditions: Chryseobacterium indologenes, 597, 18 h

Structure (SMILES) | MIC [1] [µg/mL] | MIC (Escherichia coli [2]) [µg/mL] | MIC [3] [µg/mL] | MIC (Escherichia coli [4]) [µg/mL] | MIC [5] [µg/mL]
CC1(C)S[C@@H]2[C@H](NC(=O)[C@H](N)c3ccc(O)cc3)C(=O)N2[C@H]1C(=O)O [AMOXICILLIN] | ≥ 64 | – | – | – | –
CC1(C)S[C@@H]2[C@H](NC(=O)[C@H](N)c3ccccc3)C(=O)N2[C@H]1C(=O)O [AMPICILLIN] | – | 32 (≈ 91.6 µM) | ≥ 64 | – | –
C[C@H]1[C@H](NC(=O)/C(=N\OC(C)(C)C(=O)O)c2csc(N)n2)C(=O)N1S(=O)(=O)O [AZTREONAM] | – | 0.25 (≈ 0.574 µM) | – | 0.25 (≈ 0.574 µM) | –
CO/N=C(\C(=O)N[C@@H]1C(=O)N2C(C(=O)[O-])=C(C[N+]3(C)CCCC3)CS[C@H]12)c1csc(N)n1 [CEFEPIME] | – | 0.12 (≈ 0.25 µM) | 1 (≈ 2.08 µM) | 0.03 (≈ 0.0624 µM) | –
CO/N=C(\C(=O)N[C@@H]1C(=O)N2C(C(=O)O)=C(COC(C)=O)CS[C@H]12)c1csc(N)n1 [CEFOTAXIME] | – | 0.5 (≈ 1.1 µM) | 32 (≈ 70.3 µM) | 0.12 (≈ 0.263 µM) | –
CO[C@@]1(NC(=O)Cc2cccs2)C(=O)N2C(C(=O)O)=C(COC(N)=O)CS[C@@H]21 [CEFOXITIN] | – | 16 (≈ 37.4 µM) | 16 (≈ 37.4 µM) | 2 (≈ 4.68 µM) | –
CC(C)(O/N=C(\C(=O)N[C@@H]1C(=O)N2C(C(=O)[O-])=C(C[n+]3ccccc3)CS[C@H]12)c1csc(N)n1)C(=O)O [CEFTAZIDIME] | – | 1 (≈ 1.83 µM) | 8 (≈ 14.6 µM) | 0.12 (≈ 0.22 µM) | –
CO/N=C(\C(=O)N[C@@H]1C(=O)N2C(C(=O)O)=C(CSc3nc(=O)c(O)nn3C)CS[C@H]12)c1csc(N)n1 [CEFTRIAXONE] | – | 0.12 (≈ 0.216 µM) | – | 0.03 (≈ 0.0541 µM) | –
CO/N=C(\C(=O)N[C@@H]1C(=O)N2C(C(=O)O)=C(COC(N)=O)CS[C@H]12)c1ccco1 [CEFUROXIME] | – | 32 (≈ 75.4 µM) | ≥ 64 | 2 (≈ 4.71 µM) | –
CC(=O)OCC1=C(C(=O)O)N2C(=O)[C@@H](NC(=O)Cc3cccs3)[C@H]2SC1 [CEPHALOTHIN] | – | 64 (≈ 161 µM) | ≥ 64 | 4 (≈ 10.1 µM) | –
C[C@@H](O)[C@H]1C(=O)N2C(C(=O)O)=C(SCCNC=N)C[C@H]12 [IMIPENEM ANHYDROUS] | – | 1 (≈ 3.34 µM) | ≥ 64 | – | –
C[C@@H](O)[C@H]1C(=O)N2C(C(=O)O)=C(S[C@@H]3CN[C@H](C(=O)N(C)C)C3)[C@H](C)[C@H]12 [MEROPENEM] | – | 0.12 (≈ 0.313 µM) | 8 (≈ 20.9 µM) | 0.03 (≈ 0.0782 µM) | –
CCN1CCN(C(=O)N[C@@H](C(=O)N[C@@H]2C(=O)N3[C@@H]2SC(C)(C)[C@@H]3C(=O)O)c2ccccc2)C(=O)C1=O [PIPERACILLIN] | – | – | 4 (≈ 7.73 µM) | – | 4
CO[C@@]1(NC(=O)C(C(=O)O)c2ccsc2)C(=O)N2[C@@H](C(=O)O)C(C)(C)S[C@@H]21 (stereo partly specified) [TEMOCILLIN] | – | 16 (≈ 38.6 µM) | – | 4 (≈ 9.65 µM) | –
CC1(C)S[C@@H]2[C@H](NC(=O)[C@H](C(=O)O)c3ccsc3)C(=O)N2[C@H]1C(=O)O [TICARCILLIN] | – | 256 (≈ 666 µM) | – | 4 (≈ 10.4 µM) | –
